# Experimental data published in the supplement of paper PMC10307832.
# Experiments:
# Experiment in all cases: relative viability (nuclei count vs DMSO), 5 days (fraction); higher = more cells survive
# [1] = tested on: EMC-BAC-2
# How it was run: (§1)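 Relative viability equals treated-well nuclei counts divided by vehicle-well nuclei counts. Counts came from 4× images of lung cancer cell lines grown in 1536-well plates for 5 days after pin-tool dosing on the day after seeding. Dosing used one drug alone or a fixed anchor-drug dose plus five library-drug doses (not always all listed) in √10 steps, and values are medians of duplicate plates.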
# [2] = tested on: NCI-H23
# How it was run: as §1
# [3] = tested on: HARA
# How it was run: as §1
# [4] = tested on: NCI-H322M
# How it was run: as §1
# [5] = tested on: PC-3 [JPC-3]
# How it was run: as §1
# [6] = tested on: ChaGo-K-1
# How it was run: as §1
# [7] = tested on: NCI-H661
# How it was run: as §1
# [8] = tested on: LCLC-97TM1
# How it was run: as §1
# [9] = tested on: NCI-H1792
# How it was run: as §1
# [10] = tested on: HCC-827
# How it was run: as §1
# [11] = tested on: SK-LU-1
# How it was run: as §1
# [12] = tested on: NCI-H441
# How it was run: as §1
# [13] = tested on: NCI-H1915
# How it was run: as §1
# [14] = tested on: H3255
# How it was run: as §1
# [15] = tested on: HCC-15
# How it was run: as §1
# [16] = tested on: NCI-H460
# How it was run: as §1
# [17] = tested on: EKVX
# How it was run: as §1
# [18] = tested on: LC-2-ad
# How it was run: as §1
# [19] = tested on: LU99A
# How it was run: as §1
# [20] = tested on: NCI-H1437
# How it was run: as §1
# [21] = tested on: NCI-H2126
# How it was run: as §1
structure (smiles),measurement,setting,value
Cc1cnc(-c2cnc(NCCNc3ccc(C#N)cn3)nc2-c2ccc(Cl)cc2Cl)[nH]1 + CC(C)C[C@H](NC(=O)[C@H](Cc1ccccc1)NC(=O)c1cnccn1)B(O)O [Bortezomib] (partner 0.002 µM),relative viability,[1]; first compound 0.08 µM,1.17
same,relative viability,[1]; first compound 0.253 µM,1.07
same,relative viability,[1]; first compound 0.8 µM,1.01
same,relative viability,[1]; first compound 2.53 µM,1.07
same,relative viability,[2]; first compound 0.08 µM,1.13
same,relative viability,[2]; first compound 0.253 µM,0.846
same,relative viability,[2]; first compound 0.8 µM,1.16
same,relative viability,[2]; first compound 2.53 µM,1.13
same,relative viability,[3]; first compound 0.08 µM,1.05
same,relative viability,[3]; first compound 0.253 µM,1.09
same,relative viability,[3]; first compound 0.8 µM,1.08
same,relative viability,[3]; first compound 2.53 µM,1.08
same,relative viability,[4]; first compound 0.08 µM,1.13
same,relative viability,[4]; first compound 0.253 µM,1.1
same,relative viability,[4]; first compound 0.8 µM,1.22
same,relative viability,[4]; first compound 2.53 µM,1.31
same,relative viability,[5]; first compound 0.08 µM,0.791
same,relative viability,[5]; first compound 0.253 µM,0.818
same,relative viability,[5]; first compound 0.8 µM,0.811
same,relative viability,[5]; first compound 2.53 µM,0.869
same,relative viability,[6]; first compound 0.08 µM,1.07
same,relative viability,[6]; first compound 0.253 µM,0.886
same,relative viability,[6]; first compound 0.8 µM,0.598
same,relative viability,[6]; first compound 2.53 µM,0.991
same,relative viability,[7]; first compound 0.08 µM,0.951
same,relative viability,[7]; first compound 0.253 µM,0.789
same,relative viability,[7]; first compound 0.8 µM,0.836
same,relative viability,[7]; first compound 2.53 µM,0.719
same,relative viability,[8]; first compound 0.08 µM,0.844
same,relative viability,[8]; first compound 0.253 µM,0.647
same,relative viability,[8]; first compound 0.8 µM,0.709
same,relative viability,[8]; first compound 2.53 µM,0.362
same,relative viability,[9]; first compound 0.08 µM,0.89
same,relative viability,[9]; first compound 0.253 µM,0.657
same,relative viability,[9]; first compound 0.8 µM,0.876
same,relative viability,[9]; first compound 2.53 µM,0.915
same,relative viability,[10]; first compound 0.08 µM,1.01
same,relative viability,[10]; first compound 0.8 µM,0.877
same,relative viability,[10]; first compound 2.53 µM,1.07
same,relative viability,[11]; first compound 0.08 µM,1.26
same,relative viability,[11]; first compound 0.253 µM,0.993
same,relative viability,[11]; first compound 0.8 µM,1.34
same,relative viability,[11]; first compound 2.53 µM,1.13
same,relative viability,[12]; first compound 0.08 µM,0.688
same,relative viability,[12]; first compound 0.253 µM,0.352
same,relative viability,[12]; first compound 0.8 µM,0.707
same,relative viability,[12]; first compound 2.53 µM,0.617
same,relative viability,[13]; first compound 0.08 µM,0.977
same,relative viability,[13]; first compound 0.8 µM,1.02
same,relative viability,[13]; first compound 2.53 µM,0.975
same,relative viability,[14]; first compound 0.08 µM,0.91
same,relative viability,[14]; first compound 0.253 µM,0.563
same,relative viability,[14]; first compound 0.8 µM,0.95
same,relative viability,[14]; first compound 2.53 µM,0.656
same,relative viability,[15]; first compound 0.08 µM,1.01
same,relative viability,[15]; first compound 0.253 µM,0.575
same,relative viability,[15]; first compound 0.8 µM,1
same,relative viability,[15]; first compound 2.53 µM,0.969
same,relative viability,[16]; first compound 0.08 µM,1.18
same,relative viability,[16]; first compound 0.253 µM,1
same,relative viability,[16]; first compound 0.8 µM,1.07
same,relative viability,[16]; first compound 2.53 µM,0.968
same,relative viability,[17]; first compound 0.08 µM,0.93
same,relative viability,[17]; first compound 0.253 µM,0.948
same,relative viability,[17]; first compound 0.8 µM,0.975
same,relative viability,[17]; first compound 2.53 µM,0.961
same,relative viability,[18]; first compound 0.08 µM,1.19
same,relative viability,[18]; first compound 0.8 µM,1.04
same,relative viability,[18]; first compound 2.53 µM,0.855
same,relative viability,[19]; first compound 0.08 µM,1.27
same,relative viability,[19]; first compound 0.253 µM,1.12
same,relative viability,[19]; first compound 0.8 µM,1.29
same,relative viability,[19]; first compound 2.53 µM,1.18
same,relative viability,[20]; first compound 0.08 µM,0.536
same,relative viability,[20]; first compound 0.253 µM,0.475
same,relative viability,[20]; first compound 0.8 µM,0.451
same,relative viability,[20]; first compound 2.53 µM,0.472
same,relative viability,[21]; first compound 0.08 µM,1.09
same,relative viability,[21]; first compound 0.253 µM,1.09
same,relative viability,[21]; first compound 0.8 µM,1.12
same,relative viability,[21]; first compound 2.53 µM,1.15
O=c1[nH]c2ccccc2n1C1CCN(CCCC(c2ccc(F)cc2)c2ccc(F)cc2)CC1 [Pimozide] + CC(C)C[C@H](NC(=O)[C@H](Cc1ccccc1)NC(=O)c1cnccn1)B(O)O [Bortezomib] (partner 0.002 µM),relative viability,[1]; first compound 0.08 µM,0.992
same,relative viability,[1]; first compound 0.253 µM,1.03
same,relative viability,[1]; first compound 0.8 µM,0.972
same,relative viability,[1]; first compound 2.53 µM,1.04
same,relative viability,[1]; first compound 8 µM,1.05
same,relative viability,[2]; first compound 0.08 µM,0.883
same,relative viability,[2]; first compound 0.253 µM,1.04
same,relative viability,[2]; first compound 0.8 µM,1.02
same,relative viability,[2]; first compound 2.53 µM,0.757
same,relative viability,[2]; first compound 8 µM,0.908
same,relative viability,[3]; first compound 0.08 µM,0.857
same,relative viability,[3]; first compound 0.253 µM,1.16
same,relative viability,[3]; first compound 0.8 µM,0.937
same,relative viability,[3]; first compound 2.53 µM,1.17
same,relative viability,[3]; first compound 8 µM,1.06
same,relative viability,[4]; first compound 0.253 µM,1.26
same,relative viability,[4]; first compound 0.8 µM,1.18
same,relative viability,[4]; first compound 2.53 µM,1.16
same,relative viability,[4]; first compound 8 µM,1.09
same,relative viability,[5]; first compound 0.253 µM,0.803
same,relative viability,[5]; first compound 0.8 µM,0.726
same,relative viability,[5]; first compound 2.53 µM,0.884
same,relative viability,[5]; first compound 8 µM,0.667
same,relative viability,[6]; first compound 0.08 µM,1.01
same,relative viability,[6]; first compound 0.253 µM,0.883
same,relative viability,[6]; first compound 0.8 µM,0.977
same,relative viability,[6]; first compound 2.53 µM,1.01
same,relative viability,[6]; first compound 8 µM,0.872
same,relative viability,[7]; first compound 0.08 µM,0.672
same,relative viability,[7]; first compound 0.253 µM,0.699
same,relative viability,[7]; first compound 0.8 µM,0.719
same,relative viability,[7]; first compound 2.53 µM,0.725
same,relative viability,[7]; first compound 8 µM,0.852
same,relative viability,[8]; first compound 0.08 µM,0.526
same,relative viability,[8]; first compound 0.253 µM,0.637
same,relative viability,[8]; first compound 0.8 µM,0.574
same,relative viability,[8]; first compound 2.53 µM,0.353
same,relative viability,[8]; first compound 8 µM,0.616
same,relative viability,[9]; first compound 0.08 µM,0.951
same,relative viability,[9]; first compound 0.253 µM,0.939
same,relative viability,[9]; first compound 0.8 µM,0.894
same,relative viability,[9]; first compound 2.53 µM,0.875
same,relative viability,[9]; first compound 8 µM,0.976
same,relative viability,[10]; first compound 0.253 µM,0.943
same,relative viability,[10]; first compound 0.8 µM,0.918
same,relative viability,[10]; first compound 2.53 µM,0.982
same,relative viability,[10]; first compound 8 µM,1.04
same,relative viability,[11]; first compound 0.08 µM,1.09
same,relative viability,[11]; first compound 0.253 µM,1.21
same,relative viability,[11]; first compound 0.8 µM,0.741
same,relative viability,[11]; first compound 2.53 µM,0.899
same,relative viability,[11]; first compound 8 µM,1.11
same,relative viability,[12]; first compound 0.08 µM,0.692
same,relative viability,[12]; first compound 0.253 µM,0.366
same,relative viability,[12]; first compound 0.8 µM,0.325
same,relative viability,[12]; first compound 2.53 µM,0.451
same,relative viability,[12]; first compound 8 µM,0.336
same,relative viability,[13]; first compound 0.08 µM,0.947
same,relative viability,[13]; first compound 0.253 µM,0.908
same,relative viability,[13]; first compound 0.8 µM,0.537
same,relative viability,[13]; first compound 2.53 µM,0.936
same,relative viability,[13]; first compound 8 µM,0.918
same,relative viability,[14]; first compound 0.253 µM,0.802
same,relative viability,[14]; first compound 0.8 µM,0.732
same,relative viability,[14]; first compound 2.53 µM,0.759
same,relative viability,[14]; first compound 8 µM,0.732
same,relative viability,[15]; first compound 0.08 µM,1.12
same,relative viability,[15]; first compound 0.253 µM,0.994
same,relative viability,[15]; first compound 0.8 µM,0.848
same,relative viability,[15]; first compound 2.53 µM,0.963
same,relative viability,[15]; first compound 8 µM,0.908
same,relative viability,[16]; first compound 0.08 µM,1.09
same,relative viability,[16]; first compound 0.253 µM,0.933
same,relative viability,[16]; first compound 0.8 µM,0.992
same,relative viability,[16]; first compound 2.53 µM,0.993
same,relative viability,[16]; first compound 8 µM,1.04
same,relative viability,[17]; first compound 0.253 µM,1.11
same,relative viability,[17]; first compound 0.8 µM,0.992
same,relative viability,[17]; first compound 2.53 µM,0.994
same,relative viability,[17]; first compound 8 µM,0.937
same,relative viability,[18]; first compound 0.08 µM,1.09
same,relative viability,[18]; first compound 0.253 µM,0.927
same,relative viability,[18]; first compound 0.8 µM,0.935
same,relative viability,[18]; first compound 2.53 µM,1.03
same,relative viability,[18]; first compound 8 µM,0.996
same,relative viability,[19]; first compound 0.08 µM,1.17
same,relative viability,[19]; first compound 0.253 µM,0.978
same,relative viability,[19]; first compound 0.8 µM,1.09
same,relative viability,[19]; first compound 2.53 µM,1.09
same,relative viability,[19]; first compound 8 µM,0.929
same,relative viability,[20]; first compound 0.08 µM,0.492
same,relative viability,[20]; first compound 0.253 µM,0.45
same,relative viability,[20]; first compound 0.8 µM,0.423
same,relative viability,[20]; first compound 2.53 µM,0.507
same,relative viability,[20]; first compound 8 µM,0.403
same,relative viability,[21]; first compound 0.08 µM,1.14
same,relative viability,[21]; first compound 0.253 µM,1.1
same,relative viability,[21]; first compound 0.8 µM,1.1
same,relative viability,[21]; first compound 2.53 µM,1.11
same,relative viability,[21]; first compound 8 µM,1.05
